Test results reported in ChEMBL document CHEMBL1201862, “PubChem BioAssay data set” (2004).
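Following 48 hours of exposure in 96-well plates, responses at five concentrations were used to interpolate endpoints linearly. GI50 = concentration required for 50% inhibition of growth.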 Active and inactive are the calls of the source. No stated cut-off is given here; in the data, active = GI50 up to about 1.1 µM and inactive = higher.

Experiments:
Experiment in all cases: DTP human tumour cell line panel, 48 h
HCT-15 = test system: HCT-15
CAKI-1 = test system: CAKI-1
OVCAR-5 = test system: OVCAR-5
UACC-62 = test system: UACC-62
RPMI-8226 = test system: RPMI-8226
EKVX = test system: EKVX
SF-539 = test system: SF-539
SK-OV-3 = test system: SK-OV-3
A498 = test system: A498
HT-29 = test system: HT-29
NCI-H23 = test system: NCI-H23
ACHN = test system: ACHN
SNB-19 = test system: SNB-19
SN12C = test system: SN12C
OVCAR-8 = test system: OVCAR-8
OVCAR-4 = test system: OVCAR-4
OVCAR-3 = test system: OVCAR-3
HCT-116 = test system: HCT-116

Structure (SMILES)	GI50 (HCT-15) [µM]	GI50 (CAKI-1)	GI50 (OVCAR-5)	GI50 (UACC-62)	GI50 (RPMI-8226)	GI50 (EKVX)	GI50 (SF-539)	GI50 (SK-OV-3)	GI50 (A498)	GI50 (HT-29)	GI50 (NCI-H23)	GI50 (ACHN)	GI50 (SNB-19)	GI50 (SN12C)	GI50 (OVCAR-8)	GI50 (OVCAR-4)	GI50 (OVCAR-3)	GI50 (HCT-116)
C=CCN(N=O)C(=O)N(CCC)CCCCC(NC(C)=O)C(=O)NCc1ccccc1 (stereo not drawn)	> 100	48.2 µM (inactive)	> 100 µM (inactive)	> 100 µM (inactive)	26.9 µM (inactive)	> 100 µM (inactive)	> 100 µM (inactive)	> 100 µM (inactive)	> 100 µM (inactive)	29.2 µM (inactive)	> 100 µM (inactive)	> 100 µM (inactive)	> 100 µM (inactive)	> 100 µM (inactive)	> 100 µM (inactive)	64.1 µM (inactive)	75.5 µM (inactive)	
COc1cc2c(c(OC)c1OC)-c1ccc(SC)c(=O)cc1C(CC(=O)Oc1cccc(C#N)c1)C2 (stereo not drawn)	0.33	3.42 µM (inactive)		0.202 µM (active)	0.583 µM (active)	0.574 µM (active)	0.221 µM (active)	0.046 µM (active)	0.015 µM (active)	0.276 µM (active)	0.454 µM (active)	0.593 µM (active)	0.678 µM (active)	0.48 µM (active)	0.423 µM (active)	3.32 µM (inactive)	0.232 µM (active)	0.387 µM (active)
CC(=O)Nc1ccc(C(=O)NN2C(=O)C(Cl)C2c2ccc(O)cc2)cc1 (stereo not drawn)	> 100	> 100 µM (inactive)	> 100 µM (inactive)	> 100 µM (inactive)		> 100 µM (inactive)	> 100 µM (inactive)	> 100 µM (inactive)	> 100 µM (inactive)	> 100 µM (inactive)		> 100 µM (inactive)	> 100 µM (inactive)	> 100 µM (inactive)	77.3 µM (inactive)	> 100 µM (inactive)	> 100 µM (inactive)	> 100 µM (inactive)
CCc1cc(Cc2ccc(C)c(NC(=O)C(=O)C3C(=O)NC(=O)NC3=O)c2CC)cc(C)c1NC(=O)C(=O)C1C(=O)NC(=O)NC1=O	> 100	41.8 µM (inactive)	> 100 µM (inactive)	> 100 µM (inactive)	> 100 µM (inactive)	> 100 µM (inactive)	> 100 µM (inactive)	> 100 µM (inactive)	> 100 µM (inactive)		> 100 µM (inactive)	> 100 µM (inactive)	> 100 µM (inactive)		> 100 µM (inactive)	> 100 µM (inactive)	> 100 µM (inactive)	> 100 µM (inactive)
Cc1c(C(=O)CSc2nc3ccccc3[nH]2)c(=O)n(-c2ccccc2)n1C	> 100	> 100 µM (inactive)	> 100 µM (inactive)		> 100 µM (inactive)		> 100 µM (inactive)	> 100 µM (inactive)	> 100 µM (inactive)	> 100 µM (inactive)	> 100 µM (inactive)	> 100 µM (inactive)	> 100 µM (inactive)	> 100 µM (inactive)	> 100 µM (inactive)	> 100 µM (inactive)	41.1 µM (inactive)	> 100 µM (inactive)
CC1=CC(=O)NP(=O)(C23CC4CC(CC(C4)C2)C3)N1 (stereo not drawn)	> 100	> 100 µM (inactive)	> 100 µM (inactive)	> 100 µM (inactive)	> 100 µM (inactive)	> 100 µM (inactive)	> 100 µM (inactive)	> 100 µM (inactive)	> 100 µM (inactive)	> 100 µM (inactive)	> 100 µM (inactive)	> 100 µM (inactive)	> 100 µM (inactive)	> 100 µM (inactive)	> 100 µM (inactive)	> 100 µM (inactive)	> 100 µM (inactive)	> 100 µM (inactive)
CC(=O)Nc1ccccc1-c1cnc2ccccc2n1	> 100	> 100 µM (inactive)	> 100 µM (inactive)	> 100 µM (inactive)	> 100 µM (inactive)	> 100 µM (inactive)	> 100 µM (inactive)	> 100 µM (inactive)	> 100 µM (inactive)	> 100 µM (inactive)	> 100 µM (inactive)	> 100 µM (inactive)	> 100 µM (inactive)	> 100 µM (inactive)	> 100 µM (inactive)	> 100 µM (inactive)	> 100 µM (inactive)	> 100 µM (inactive)
Cc1cc(NS(=O)(=O)c2ccc(NC(=O)c3ccc(Cl)c4c(Nc5ccc(S(N)(=O)=O)cc5)c5ccccc5nc34)cc2)no1	> 100	21.1 µM (inactive)	24.5 µM (inactive)	11.2 µM (inactive)		33.1 µM (inactive)	17.3 µM (inactive)	34.8 µM (inactive)	23.3 µM (inactive)	22.2 µM (inactive)	23.4 µM (inactive)	29.1 µM (inactive)	14.7 µM (inactive)	23.1 µM (inactive)	17.9 µM (inactive)	24.3 µM (inactive)	20 µM (inactive)	15.2 µM (inactive)
O=C1OC(O)C(Oc2c(Cl)cccc2Cl)=C1Cl (stereo not drawn)	15.6	18.9 µM (inactive)	19.4 µM (inactive)	11.9 µM (inactive)	18.1 µM (inactive)	29.6 µM (inactive)	17 µM (inactive)	19.5 µM (inactive)	22.2 µM (inactive)	18.4 µM (inactive)	17.7 µM (inactive)	17.2 µM (inactive)	27.5 µM (inactive)	17 µM (inactive)	17.5 µM (inactive)		13.5 µM (inactive)	14.8 µM (inactive)
Cn1c(=O)c2nc(N3CCOCC3)cnc2n(C)c1=O	> 100	> 100 µM (inactive)	> 100 µM (inactive)	> 100 µM (inactive)	> 100 µM (inactive)	> 100 µM (inactive)	> 100 µM (inactive)	> 100 µM (inactive)	> 100 µM (inactive)	> 100 µM (inactive)	> 100 µM (inactive)	> 100 µM (inactive)	> 100 µM (inactive)	> 100 µM (inactive)	> 100 µM (inactive)	> 100 µM (inactive)	> 100 µM (inactive)	> 100 µM (inactive)
CCCCP1(=O)C=CC(Cl)=C(C)C1 (stereo not drawn)	> 100		> 100 µM (inactive)	> 100 µM (inactive)		> 100 µM (inactive)	> 100 µM (inactive)		> 100 µM (inactive)	> 100 µM (inactive)	> 100 µM (inactive)	> 100 µM (inactive)		> 100 µM (inactive)	> 100 µM (inactive)	> 100 µM (inactive)	> 100 µM (inactive)	> 100 µM (inactive)
N#CC1=C(N)N2C(=O)/C(=C/c3ccccc3)SC2C(c2nc3ccccc3[nH]2)=C1c1ccccc1 (stereo not drawn)	2.95	2.07 µM (inactive)	2.54 µM (inactive)	2.17 µM (inactive)		2.23 µM (inactive)	1.91 µM (inactive)	1.68 µM (inactive)	2.12 µM (inactive)	4.03 µM (inactive)	1.85 µM (inactive)	3.67 µM (inactive)	3.4 µM (inactive)	2.91 µM (inactive)	2.46 µM (inactive)	2.42 µM (inactive)	1.89 µM (inactive)	3.45 µM (inactive)
COc1ccc2nc(NC(=O)C(=O)C(C(=O)c3ccccc3-c3ccccc3)C3OC(=O)c4ccccc43)sc2c1 (stereo not drawn)			18.7 µM (inactive)	17.3 µM (inactive)	10.7 µM (inactive)	21.7 µM (inactive)	15.2 µM (inactive)	27.4 µM (inactive)	17.7 µM (inactive)	36.6 µM (inactive)	13.8 µM (inactive)	26 µM (inactive)			20.1 µM (inactive)		18.5 µM (inactive)	14.5 µM (inactive)
Cc1c(/C=N/NC(=O)c2ccccc2)c(=O)n(-c2ccccc2)n1C	> 100			> 100 µM (inactive)	> 100 µM (inactive)	> 100 µM (inactive)	> 100 µM (inactive)	> 100 µM (inactive)	> 100 µM (inactive)	> 100 µM (inactive)	> 100 µM (inactive)	> 100 µM (inactive)	> 100 µM (inactive)	> 100 µM (inactive)	> 100 µM (inactive)	> 100 µM (inactive)	> 100 µM (inactive)	> 100 µM (inactive)
CCCCN(CCCC)/C(=N\C#N)NCc1ccccc1	15	22.5 µM (inactive)	26.4 µM (inactive)	16.3 µM (inactive)	13.7 µM (inactive)	19.6 µM (inactive)	23.8 µM (inactive)	20.7 µM (inactive)	18.1 µM (inactive)	16.5 µM (inactive)	27.1 µM (inactive)	26.2 µM (inactive)	19.6 µM (inactive)	18.8 µM (inactive)	26.1 µM (inactive)	28.6 µM (inactive)	13.6 µM (inactive)	27.1 µM (inactive)
OCCCCOC(c1ccccc1)(c1ccccc1)c1ccccc1	> 100	> 100 µM (inactive)	> 100 µM (inactive)	> 100 µM (inactive)	> 100 µM (inactive)		> 100 µM (inactive)	> 100 µM (inactive)		> 100 µM (inactive)	> 100 µM (inactive)	> 100 µM (inactive)		> 100 µM (inactive)	> 100 µM (inactive)	> 100 µM (inactive)	> 100 µM (inactive)	> 100 µM (inactive)
COc1cc(Br)c(CC2(C#N)c3ccccc3C3C(N2C(=O)c2ccccc2)C3(Cl)Cl)cc1OC (stereo not drawn)	> 65.5		> 65.5 µM (inactive)	33.5 µM (inactive)	0.935 µM (active)	> 65.5 µM (inactive)	48 µM (inactive)	> 65.5 µM (inactive)		> 65.5 µM (inactive)	> 65.5 µM (inactive)	> 65.5 µM (inactive)	> 65.5 µM (inactive)	> 65.5 µM (inactive)	> 65.5 µM (inactive)		15.1 µM (inactive)	> 65.5 µM (inactive)
